Results on 36 compounds are retold here after US9115101B2 (Genentech, Inc., priority 2012, dated 2015).

Like-named read-outs stand apart in the source and are kept apart here.

The target of the assay is T1, RORc ligand binding domain (Homo sapiens, UniProt P51449).
T1 construct: host or cells: E. coli
T1 sequence (P51449 269-508 limits assumed): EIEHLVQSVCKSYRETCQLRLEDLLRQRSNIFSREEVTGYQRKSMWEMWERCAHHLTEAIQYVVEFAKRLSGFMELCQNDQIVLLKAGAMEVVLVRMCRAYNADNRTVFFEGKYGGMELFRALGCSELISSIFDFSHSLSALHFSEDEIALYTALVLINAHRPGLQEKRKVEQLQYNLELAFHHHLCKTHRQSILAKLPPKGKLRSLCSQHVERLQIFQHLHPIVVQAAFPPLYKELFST
Put plainly: In Vitro RORc Ligand Binding Assay (25-[3H]hydroxycholesterol radioligand filtration). To be noted: read-out: RORc IC50.

Setting [1] is: In Vitro RORc Ligand Binding Assay, Table 4.

For `C[C@H]1CCC(c2ccccc2)S(=O)(=O)N1Cc1ccc(C(=O)N2CCN(C(=O)C3CC3)CC2)cc1` (stereo partly drawn) [Example 288, (4-Cyclopropane carbonyl-piperazin-1-yl)-[4-((3S)-methyl-1,1-dioxo-6-phenyl-[1,2]thiazinan-2-ylmethyl)-phenyl]-methanone], the IC50 under setting [1] came out at 2670 nM. `CO[C@@H](C)C(=O)N1CCCN(c2ccc(CN3[C@@H](C)CCC(c4ccccc4)S3(=O)=O)c(F)c2)CC1` (single isomer, unassigned) [Example 90]: the IC50 under setting [1] turned out to be 76 nM. For the compound `C[C@@H]1CC(c2ccccc2)S(=O)(=O)N(Cc2ccc(N3CCN(C(=O)CC#N)CC3)cc2F)C1` (stereo partly drawn) [Example 230, 3-{4-[3-Fluoro-4-((4R)-methyl-1,1-dioxo-6-phenyl-[1,2]thiazinan-2-ylmethyl)-phenyl]-piperazin-1-yl}-3-oxo-propionitrile], the IC50 under setting [1] was 93 nM.

Take `C[C@H]1CCC(c2ccccc2)S(=O)(=O)N1Cc1ccc(N2CCCNCC2)cc1F` (single isomer, unassigned) [Example 89]: under setting [1], the IC50 was 1250 nM. Consider `C[C@H]1CCC(c2ccccc2)S(=O)(=O)N1Cc1ccc(N[C@H]2CC[C@@H](C#N)CC2)cc1F` (single isomer, unassigned) [Example 97], for which the IC50 under setting [1] turned out to be 40 nM.

Take `C[C@H]1CCC(c2ccccc2)S(=O)(=O)N1Cc1ccc(C(=O)NC2CC(O)C2)cc1` (stereo partly drawn) [Example 268, N-(3-Hydroxy-cyclobutyl)-4-((3S)-methyl-1,1-dioxo-6-phenyl-[1,2]thiazinan-2-ylmethyl)-benzamide]: the IC50 under setting [1] came to 3250 nM. In the case of `CC(=O)N1CCN(c2ccc(CN3[C@H](C)CC(c4ccccc4)S3(=O)=O)c(F)c2)CC1` (single isomer, unassigned) [Example 66], under setting [1], the IC50 came to 310 nM. Same read-out and setting: under `CC(=O)N1CCN(c2ccc(CN3C(C)CCCC(c4ccccc4)S3(=O)=O)c(F)c2)CC1` (single isomer, unassigned) [Example 329, 1-{4-[3-Fluoro-4-(3-methyl-1,1-dioxo-7-phenyl-[1,2]thiazepan-2-ylmethyl)-phenyl]-piperazin-1-yl}-ethanone] stands 24 nM; under `C[C@H]1CCC(c2ccccc2)S(=O)(=O)N1Cc1ccc(N2CCC(c3nnn[nH]3)CC2)cc1F` (single isomer, unassigned) [Example 142], 192 nM. On to `CC(=O)N1CCN(c2ccc(CN3C4CCCC4CC(c4ccccc4)S3(=O)=O)c(F)c2)CC1` (single isomer, unassigned) [Example 251, 1-(4-(4-((2,2-dioxido-3-phenylhexahydro-cyclopenta[c][1,2]thiazin-1(3H)-yl)methyl)-3-fluorophenyl)piper-azin-1-yl)ethanone], for which, under setting [1], the IC50 worked out at 219 nM. Same read-out and setting: the result for `CC(=O)N1CCN(c2ccc(CN3C(C)CCCC(c4ccccc4)S3(=O)=O)c(F)c2)CC1` (single isomer, unassigned) [Example 330, 1-{4-[3-Fluoro-4-(3-methyl-1,1-dioxo-7-phenyl-[1,2]thiazepan-2-ylmethyl)-phenyl]-piperazin-1-yl}-ethanone] reads 37 nM; that for `C[C@H]1CCC(c2ccccc2)S(=O)(=O)N1Cc1ccc(N2CCC(CS(C)(=O)=O)CC2)cc1F` (single isomer, unassigned) [Example 104], 54 nM; that for `CC(=O)N1CCN(c2ccc(CN3[C@@H](C)CCC(c4ccccc4F)S3(=O)=O)c(F)c2)CC1` (single isomer, unassigned) [Example 116], 37 nM. Still for that read-out and setting: under `C[C@@H]1CC(c2ccccc2)S(=O)(=O)N(Cc2ccc(NC3CCN(S(C)(=O)=O)CC3)cc2F)C1` (stereo partly drawn) [Example 227, [3-Fluoro-4-((4R)-methyl-1,1-dioxo-6-phenyl-[1,2]thiazinan-2-ylmethyl)-phenyl]-(1-methanesulfonyl-piperidin-4-yl)-amine] stands 3 nM; under `C[C@H]1CCC(c2ccccc2)S(=O)(=O)N1Cc1ccc(N2CCC(n3cnnc3)CC2)cc1` (single isomer, unassigned) [Example 213], 75 nM; under `O=S1(=O)C(c2ccccc2)CCCCN1Cc1ccc(N2CCC(n3cnnc3)CC2)cc1` (single isomer, unassigned) [Example 342, 7-Phenyl-2-[4-(4-[1,2,4]triazol-4-yl-piperidin-1-yl)-benzyl]-[1,2]thiazepane 1,1-dioxide], 75 nM. Same read-out and setting: the result for `CC(=O)N1CCN(c2ccc(CN3CC4(CC4)CC(c4ccccc4)S3(=O)=O)c(F)c2)CC1` (single isomer, unassigned) [Example 199, 1-{4-[4-(6,6-Dioxo-7-phenyl-6-thia-5-aza-spiro[2.5]oct-5-ylmethyl)-3-fluoro-phenyl]-piperazin-1-yl}-ethanone] reads 14 nM; that for `CC(=O)N1CCN(c2ccc(CN3[C@@H](C)CCC(c4ccccc4C)S3(=O)=O)c(F)c2)CC1` (single isomer, unassigned) [Example 206], 14 nM.

In the case of `C[C@H]1CCC(c2ccccc2)S(=O)(=O)N1Cc1ccc(N2CCN3C(=O)CC[C@H]3C2)cc1F` (stereo partly drawn) [Example 419, (S)-2-[3-Fluoro-4-((3S)-methyl-1,1-dioxo-6-phenyl-[1,2]thiazinan-2-ylmethyl)-phenyl]-hexahydro-pyrrolo[1,2-a]pyrazin-6-one], the IC50 came to 32 nM. `CN/C(=C\[N+](=O)[O-])N1CCN(c2ccc(CN3[C@@H](C)CCC(c4ccccc4)S3(=O)=O)c(F)c2)CC1` (stereo partly drawn) [Example 126, ((E)-1-{4-[3-Fluoro-4-((3S)-3-methyl-1,1-dioxo-6-phenyl-[1,2]thiazinan-2-ylmethyl)-phenyl]-piperazin-1-yl}-2-nitro-vinyl)-methyl-amine]: the IC50 under setting [1] was determined as 258 nM. The same measure, in the same setting: under `C[C@H]1CCC(c2ccccc2)S(=O)(=O)N1Cc1ccc(OC2CCN(S(C)(=O)=O)CC2)cc1F` (single isomer, unassigned) [Example 33] stands 13 nM. In the case of `C[C@H]1CCC(c2ccccc2)S(=O)(=O)N1Cc1ccc(C(=O)NC2CCCC2O)cc1` (stereo partly drawn) [Example 270, N-(2-Hydroxy-cyclopentyl)-4-((3S)-methyl-1,1-dioxo-6-phenyl-[1,2]thiazinan-2-ylmethyl)-benzamide], the IC50 under setting [1] came out at 2440 nM. Regarding `C[C@H]1CCC(c2ccccc2)S(=O)(=O)N1Cc1ccc(C(=O)N2CCC(C#N)CC2)cc1` (stereo partly drawn) [Example 279, 1-[4-((3S)-Methyl-1,1-dioxo-6-phenyl-[1,2]thiazinan-2-ylmethyl)-benzoyl]-piperidine-4-carbonitrile], the IC50 under setting [1] came to 4280 nM. The same measure, in the same setting: the result for `O=S1(=O)C(c2ccccc2)CCCCN1Cc1ccc(N2CCC(n3cnnc3)CC2)cc1` (single isomer, unassigned) [Example 336, 7-Phenyl-2-[4-(4-[1,2,4]triazol-4-yl-piperidin-1-yl)-benzyl]-[1,2]thiazepane 1,1-dioxide] reads 28 nM. With `C[C@H]1CCC(c2ccccc2)S(=O)(=O)N1Cc1ccc(C(=O)NCCN2CCCC2=O)cc1` (stereo partly drawn) [Example 275, 4-((3S)-Methyl-1,1-dioxo-6-phenyl-[1,2]thiazinan-2-ylmethyl)-N-[2-(2-oxo-pyrrolidin-1-yl)-ethyl]-benzamide], the IC50 under setting [1] came out at 6050 nM.

`CC(=O)N1CCN(c2ccc(CN3[C@@H](C)CCC(c4ccccc4)S3(=O)=O)c(F)c2)[C@@H](C(N)=O)C1` (stereo partly drawn) [Example 433, (R)-4-Acetyl-1-[3-fluoro-4-((3S)-methyl-1,1-dioxo-6-phenyl-[1,2]thiazinan-2-ylmethyl)-phenyl]-piperazine-2-carboxylic acid amide]: the IC50 worked out at 228 nM. For `CC(=O)N1CCN(c2ccc(CN3[C@@H](C)CCC(c4ccccc4)S3(=O)=O)cc2Cl)CC1` (single isomer, unassigned) [Example 163], the IC50 under setting [1] is 57 nM.

For the compound `C[C@H]1CCC(c2ccccc2)S(=O)(=O)N1Cc1ccc(N2CCC(c3nccn3C)CC2)cc1F` (single isomer, unassigned) [Example 140], under setting [1], the IC50 is 410 nM.

Regarding `C[C@H]1CCC(c2ccccc2)S(=O)(=O)N1Cc1ccc(N2CCN3C(=O)CN(C)C(=O)[C@@H]3C2)cc1F` (stereo partly drawn) [Example 402, (S)-8-[3-Fluoro-4-((3S)-methyl-1,1-dioxo-6-phenyl-[1,2]thiazinan-2-ylmethyl)-phenyl]-2-methyl-hexahydro-pyrazino[1,2-a]pyrazine-1,4-dione], the IC50 came to 3540 nM. Take `C[C@H](O)C(=O)N1CCCN(c2ccc(CN3[C@@H](C)CCC(c4ccccc4)S3(=O)=O)c(F)c2)CC1` (single isomer, unassigned) [Example 91]: under setting [1], the IC50 came out at 254 nM. Turning to `C[C@H]1CCC(c2ccccc2)S(=O)(=O)N1Cc1ccc(N2CCN3C(=O)OCC3C2)cc1F` (single isomer, unassigned) [Example 420], the IC50 was determined as 28 nM. In the case of `CC(=O)N1CCN(c2ccc(CN3C[C@@H](C)OCC(c4ccccc4)S3(=O)=O)c(F)c2)CC1` (single isomer, unassigned) [Example 31], the IC50 under setting [1] amounted to 717 nM. Same read-out and setting: under `COCC(=O)N1CCN(c2ccc(CN3[C@@H](C)CCC(c4ccccc4)S3(=O)=O)c(F)c2)CC1` (single isomer, unassigned) [Example 75] stands 167 nM; under `CC(=O)N1CCN(c2ccc(CN3CC(C)CC(c4ccccc4)S3(=O)=O)c(F)c2)CC1` (single isomer, unassigned) [Example 119, 1-{4-[3-Fluoro-4-(4-methyl-1,1-dioxo-6-phenyl-[1,2]thiazinan-2-ylmethyl)-phenyl]-piperazin-1-yl}-ethanone], 2 nM. Still for that read-out and setting: under `CC(=O)N1CCN(c2ccc(CN3[C@@H](C)CCC(c4ccccc4C)S3(=O)=O)c(F)c2)CC1` (single isomer, unassigned) [Example 205] stands 307 nM; under `C[C@H]1CCC(c2ccccc2)S(=O)(=O)N1Cc1ccc(C(=O)N2CCOC3(CCOC3)C2)cc1` (stereo partly drawn) [Example 361, (2,6-Dioxa-9-aza-spiro[4.5]dec-9-yl)-[4-((3S)-methyl-1,1-dioxo-6-phenyl-[1,2]thiaznan-2-ylmethyl)-phenyl]-methanone], 641 nM.

A word on the IC50: it is the midpoint of a concentration-inhibition curve.
